Reference: patent publication US11524942B2, “Metabolites of [3-(4-{2-butyl-1-[4-(4-chloro-phenoxy)-phenyl]-1H-imidazol-4 yl}-phenoxy)-propyl]-diethyl-amine” (vTv Therapeutics LLC, priority 2018, dated 2022)

biological target: human sRAGE (the soluble extracellular domain of the human receptor for advanced glycation endproducts) (Homo sapiens (Human), UniProt Q15109); assay: Microscale thermophoresis binding affinity to recombinant human sRAGE; conditions: 25° C., pH 7.5
Method: Around 5 nM sRAGE was subsequently added to compounds at concentrations from 600 nM to 20 pM and incubated for 5 minutes at 25° C. in buffer containing 25 mM Hepes (pH 7.5), 5 mM CaCl2), 5 mM MgCl2, 50 mM NaCl, 0.05% Tween20 and 1% DMSO before proceeding to microscale thermophoresis.
The raw thermophoresis data and average Kds were generated according to manufacturer's protocol using the Microscale Thermophoresis System analysis software.

Sequence of human sRAGE (the soluble extracellular domain of the human receptor for advanced glycation endproducts) (Q15109 23-342): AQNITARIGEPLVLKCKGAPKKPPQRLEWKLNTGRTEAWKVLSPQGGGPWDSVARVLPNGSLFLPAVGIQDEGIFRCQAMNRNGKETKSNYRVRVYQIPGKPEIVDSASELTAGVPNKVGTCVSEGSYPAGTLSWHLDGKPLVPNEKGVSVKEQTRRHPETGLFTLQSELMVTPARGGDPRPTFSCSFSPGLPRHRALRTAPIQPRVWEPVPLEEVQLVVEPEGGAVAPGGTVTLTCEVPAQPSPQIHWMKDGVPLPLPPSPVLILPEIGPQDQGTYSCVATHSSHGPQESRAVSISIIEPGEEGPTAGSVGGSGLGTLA

Q: How did the Kd turn out when `CCCCc1nc(-c2ccc(OCCC(=O)O)cc2)cn1-c1ccc(Oc2ccc(Cl)cc2)cc1` [Metabolite M1, 3-(4-{2-Butyl-1-[4-(4-chloro-phenoxy)-phenyl]-1H-imidazol-4-yl}-phenoxy)-propionic acid] was run?
A: 219 nM

Q: `CCCCc1nc(-c2ccc(O)cc2)cn1-c1ccc(Oc2ccc(Cl)cc2)cc1` [Metabolite M3, 4-{2-butyl-1-[4-(4-chloro-phenoxy)-phenyl]-1H-imidazol-4-yl}-phenol] was tested. Which Kd did it give?
A: 257 nM

Q: `CCCCc1nc(-c2ccc(OCCCN(CC)CC)cc2)cn1-c1ccc(Oc2ccc(Cl)cc2O)cc1` [Metabolite M5, 2-[4-[2-butyl-4-[4-[3-(diethylamino)propoxy]phenyl]imidazol-1-yl]phenoxy]-5-chloro-phenol] was tested. Which Kd did it give?
A: 9.7 nM

Q: With `CCCCc1nc(-c2ccc(OCCCN(CC)CC)cc2)cn1-c1ccc(Oc2ccc(Cl)c(O)c2)cc1` [Metabolite M6, 5-[4-[2-butyl-4-[4-[3-(diethylamino)propoxy]phenyl]imidazol-1-yl]phenoxy]-2-chloro-phenol] as the molecule, how does the Kd read?
A: 9.8 nM

Q: For `CCCCc1nc(-c2ccc(OCCCO)cc2)cn1-c1ccc(Oc2ccc(Cl)cc2)cc1` [Metabolite M7, 3-(4-{2-Butyl-1-[4-(4-chloro-phenoxy)-phenyl]-1H-imidazol-4-yl}-phenoxy)-propan-1-ol], which Kd is on record?
A: 99.8 nM
